Measured values as given in US20240366612A1, “COMPOUNDS AND METHODS FOR MODULATING NUCLEIC ACID SPLICING” (REMIX THERAPEUTICS INC., priority 2021, published 2024).

What was measured:
HTT CJ mRNA = experiment: Gene panel canonical junction qPCR assay, HTT; type: cell-based; details: Homo sapiens, larger gene panel, read-out: HTT IC50 (decrease in CJ mRNA levels)
Method: (§1) Compounds described herein were used to modulate RNA transcript abundance in cells. The expression of a target mRNA was measured by detecting the formation of an exon-exon junction in the canonical transcript (CJ). A compound mediated exon-inclusion event was detected by observing an increase in formation of a new junction with an alternative exon (AJ). Real-time qPCR assays were used to detect these splicing switches and interrogate the potency of various compounds towards different target genes. A high-throughput real time quantitative PCR (RT-qPCR) assay was developed to measure these two isoforms of the mRNA (CJ and AJ) for exemplary genes, such as HTT, SMN2, and MYB, together with a control housekeeping gene, GAPDH or GUSB or PPIA, used for normalization. Briefly, the A673 or K562 cell line was treated with various compounds described herein (e.g., compounds of Formula (I)). After treatment, the levels of the HTT, MYB, or SMN2 mRNA targets were determined from each sample of cell lysate by cDNA synthesis followed by qPCR.
(§2) The A673 cell line was cultured in DMEM with 10% FBS. Cells were diluted with full growth media and plated in a 96-well plate (15,000 cells in 100 ul media per well). The plate was incubated at 37° C. with 5% CO2 for 24 hours to allow cells to adhere. An 11-point 3-fold serial dilution of the compounds was made in DMSO then diluted in media in an intermediate plate. Compounds were transferred from the intermediate plate to the cell plate with the top dose at a final concentration of 10 uM in the well. Final DMSO concentration was kept at or below 0.25%. The cell plate was returned to the incubator at 37° C. with 5% CO2 for an additional 24 hours.
(§3) The K562 cell line was cultured in IMDM with 10% FBS. For K562, cells were diluted with full growth media and plated in either a 96-well plate (50,000 cells in 50 uL media per well) or a 384-well plate (8,000-40,000 cells in 45 uL media per well). An 11-point 3-fold serial dilution of the compounds were made in DMSO then diluted in media in an intermediate plate. Compound was transferred from the intermediate plate to the cell plate with the top dose at a final concentration of 10 uM in the well. Final DMSO concentration was kept at or below 0.25%. Final volume was 100 uL for 96-well plate and 50 uL for 384-well plate. The cell plate was then placed in an incubator at 37° C. with 5% CO2 for 24 hours.
(§4) The data analysis was performed by first determining the ΔCt vs the housekeeper gene. This ΔCt was then normalized against the DMSO control (ΔΔCt) and converted to RQ (relative quantification) using the 2^(−ΔΔCt) equation. The RQ were then converted to a percentage response by arbitrarily setting an assay window of 3.5 and 4.0 ΔCt for HTT-CJ and MYB-CJ respectively and an assay window of 9 and 3 ΔCt for HTT-AJ and MYB-AJ in 96 well format (50,000 K562 cells/well and 15,000 A673 cells per well) and an assay window of 3 and 4 ΔCt for HTT-CJ and MYB-CJ respectively and an assay window of 5 and 3 ΔCt for HTT-AJ and MYB-AJ respectively in 384 well format (8,000 K562 cells/well example). […] The percentage response was then fitted to the 4 parametric logistic equation to evaluate the concentration dependence of compound treatment. The increase in AJ mRNA is reported as AC50 (compound concentration having […] in AJ increase) while the decrease in CJ mRNA levels is reported as IC50 (compound concentration having 50% response in CJ decrease).
(§5) Additional studies were carried out for a larger panel of genes using the protocol provided above. The junction between flanking upstream and downstream exons was used to design canonical junction qPCR assays. At least one of the forward primer, reverse primer or the CY5-labeled 5′ nuclease probe (with 3′ quencher such as ZEN/Iowa Black FQ) was designed to overlap with the exon junction to capture the CJ mRNA transcript. […]

HTT mRNA = experiment: Splicing RT-qPCR assay, HTT canonical (CJ) and alternative (AJ) junction mRNA; type: cell-based; details: Homo sapiens, A673 or K562 cells, 24 hours treatment; for IC50: decrease in CJ mRNA; for AC50: increase in AJ mRNA
Method: as §1
(§6) • Cells-to-CT 1-step kit: ThermoFisher A25602, Cells-to-CT lysis reagent: ThermoFisher 4391851C, TaqMan™ Fast Virus 1-Step Master Mix: ThermoFisher 4444436 • GAPDH: VIC-PL, ThermoFisher 4326317E (Assay: Hs99999905_ml)—used for K562/suspension cell lines • GUSB: VIC-PL, ThermoFisher 4326320E (Assay: Hs99999908_ml)—used for K562/suspension cell lines • PPIA: VIC-PL, ThermoFisher 4326316E (Assay: Hs99999904_ml)—used for A673/adherent cell lines
as §2, §3
(§7) The cells were then gently washed with 50 uL-100 uL cold PBS before proceeding to addition of lysis buffer. 30 uL-50 μL of room temperature lysis buffer with DNAse I (and optionally RNAsin) was added to each well. Cells were shaken/mixed thoroughly at room temperature for 5-10 minutes for lysis to take place and then 3 uL-5 μL of room temperature stop solution was added and wells were shaken/mixed again. After 2-5 minutes, the cell lysate plate was transferred to ice for RT-qPCR reaction setup. The lysates could also be frozen at −80° C. for later use.
(§8) In some cases, a direct lysis buffer was used. An appropriate volume of 3×lysis buffer (10 mM Tris, 150 mM NaCl, 1.5%-2.5% Igepal and 0.1-1 U/uL RNAsin, pH 7.4) was directly added to either K562 or A673 cells in media and mixed by pipetting 3 times. The plates were then incubated at room temperature with shaking/rocking for 20-50 minutes to allow for lysis to take place. After this time, the cell lysate plate was transferred to ice to set up for the RT-qPCR reactions. The lysates could also be frozen at −80° C. for later use. […]

SMN2 CJ mRNA = experiment: Gene panel canonical junction qPCR assay, SMN2; type: cell-based; details: Homo sapiens, larger gene panel, read-out: SMN2 IC50 (decrease in CJ mRNA levels)
Method: as §1, §2, §3, §4, §5

MYB mRNA = experiment: Splicing RT-qPCR assay, MYB canonical (CJ) and alternative (AJ) junction mRNA; type: cell-based; details: Homo sapiens, A673 or K562 cells, 24 hours treatment; for IC50: decrease in CJ mRNA; for AC50: increase in AJ mRNA
Method: as §1, §6, §2, §3, §7, §8

Target C CJ mRNA = experiment: Gene panel canonical junction qPCR assay, Target C; type: cell-based; details: Homo sapiens, larger gene panel, read-out: Target C IC50 (decrease in CJ mRNA levels)
Method: as §1, §2, §3, §4, §5

MYB CJ mRNA = experiment: Gene panel canonical junction qPCR assay, MYB; type: cell-based; details: Homo sapiens, larger gene panel, read-out: MYB IC50 (decrease in CJ mRNA levels)
Method: as §1, §2, §3, §4, §5

[1] = Cell Titer Glo 2.0 cell viability assay; details: human, K562 cells
Method: Compounds described herein were screened for toxicity in K562 (human chronic myelogenous leukemia) cells using a Cell Titer Glo 2.0 assay.
• Promega CellTiter-Gbo® 2.0 Cell Viability Assay (cat #G9241) • Corning 384-well TC-treated microplates (cat #3570)
Cells were plated at 500 cells/well (K562 cells) in 45 μL of IMDM supplemented with 10% FBS in a 384-well opaque plate. Wells containing only medium were used as a blank control. Test compounds (e.g., compounds of Formula (I), (II), and (III)) were first serially diluted in DMSO then diluted 1:100 with IMDM+10% FBS. The final concentration of DMSO was 0.1% in each well. The cells were incubated for 72 hours at 37° C. and 5% CO2 before assaying with Cell Titer Glo 2.0 reagent.

[2] = test system: HiBiT-tagged HTT protein in K562 cells; experiment: HiBiT protein abundance assay, HTT; type: cell-based, human; details: HiBiT-modified K562 cells, 24 hours, luminescence
Method: (§9) Compounds described herein were used to screen for effects on quantitative protein abundance using a HiBit assay system (Promega). Quantitative protein abundance was determined by measuring the protein levels of HiBit-tagged protein targets expressed in cell culture via luminescence using the Nano-Glo HiBiT Lytic Detection System, which uses a split complementation assay format to reconstitute NanoBiT enzyme to generate a luminescent signal. A protein abundance assay was developed such that endogenous protein targets could be modified with the HiBiT peptide tag and their abundance could be assessed after compound treatment. Briefly, K562 cell lines containing a HiBiT-modification were treated with various compounds described herein (e.g., compounds of Formulas (I), (II), or (III)). After treatment for 24 hours, the protein abundance of a specific target was determined by measuring luminescence.
(§10) • Promega Nano-Glo HiBiT Lytic Detection System (cat #N3030) • Corning 384-well TC-treated microplates (cat #3570) • Synthego Engineered Cells Knock-In Clones
(§11) Cells were maintained in IMDM with 10% FBS. Before the assay, cells were diluted with […] growth media (IMDM+1% FBS media) and were seeded in a 384-well plate at a density of 10000 cells/well (for each cell line listed in Table 5). Each compound was prepared as a 10-point 3-fold serial dilution in DMSO with the top dose at a final concentration of 10 μM in the well. Unmodified K562 cells were added at the previously specified density with DMSO to serve as an assay baseline and positive control (PC) and DMSO only with the respective modified cell lines was added to the negative control (NC) columns. Final DMSO concentration was kept at or below 0.25%. Treated cell plates were placed in an incubator at 37° C. with 5% CO2 for 24 hours. After 24 hours, 25 μL of Complete HiBit Lytic reagent was added to each well at room temperature (e.g. one plate requiring 10 mL Lytic Buffer, 100 μL LgBiT Protein, 200 μL Lytic Substrate), shaken for 5 minutes at 600 RPM, then left to sit for 10 minutes for signal to stabilize before reading on a Spark Cyto plate reader (Tecan) with a 500 ms measurement time.
(§12) To determine compound effects on protein abundance of each target in Table 5, the percent response for each respective cell line was calculated at each compound concentration as follows:
(§13) For the normalized response at each concentration, a four-parameter logistical regression was fit to the data and the response was interpolated at the 50% value to determine a concentration for protein abundance at 50% (IC50) the untreated control.

[3] = test system: HiBiT-tagged Target C protein in K562 cells; experiment: HiBiT protein abundance assay, Target C; type: cell-based, human; details: HiBiT-modified K562 cells, 24 hours, luminescence
Method: as §9, §10, §11, §12, §13

[4] = test system: HiBiT-tagged MYB protein in K562 cells; experiment: HiBiT protein abundance assay, MYB; type: cell-based, human; details: HiBiT-modified K562 cells, 24 hours, luminescence
Method: as §9, §10, §11, §12, §13

Row | SMILES | IC50 (HTT CJ mRNA) [nM] | IC50 (HTT mRNA) [nM] | AC50 (HTT mRNA) [nM] | IC50 (SMN2 CJ mRNA) [nM] | IC50 (MYB mRNA) [nM] | AC50 (MYB mRNA) [nM] | IC50 (Target C CJ mRNA) [nM] | IC50 (MYB CJ mRNA) [nM] | GI50 at 72 h [1] [nM] | IC50 [2] [nM] | IC50 [3] [nM] | IC50 [4] [nM]
1 | Cc1cn2cc(-c3cc4ncn([C@H]5CNCC[C@@H]5O)c(=O)c4s3)cc(F)c2n1 (relative stereo) [Compound 281, 6-{8-fluoro-2-methylimidazo[1,2-a]pyridin-6-yl}-3-[(trans)-4-hydroxypiperidin-3-yl]thieno[3,2-d]pyrimidin-4-one] | 1000 to 10000 | 1000 to 10000 | 1000 to 10000 | 1000 to 10000 | 1000 to 10000 | 1000 to 10000 | 1000 to 10000 | 1000 to 10000 |  |  |  | 
2 | CN1CCN(c2nc3ncn(-c4ccc5nn(C)cc5c4)c(=O)c3s2)CC1 [Compound 182, 6-(2-methyl-2H-indazol-5-yl)-2-(4-methylpiperazin-1-yl)thiazolo[4,5-d]pyrimidin-7(6H)-one] | 1000 to 10000 | 1000 to 10000 | 1000 to 10000 | 1000 to 10000 |  |  |  |  |  |  |  | 
3 | Cc1cc(-c2cn3c(=O)cc(N4CCN(C)CC4)nc3s2)cc2cn(C)nc12 [Compound 183, 2-(2,7-dimethyl-2H-indazol-5-yl)-7-(4-methylpiperazin-1-yl)-5H-thiazolo[3,2-a]pyrimidin-5-one] | > 10000 | > 10000 | > 10000 | 1000 to 10000 | > 10000 | > 10000 | > 10000 | > 10000 |  |  |  | 
4 | Cc1cn2cc(-c3cn4c(=O)cc(N5CCN(C)CC5)nc4s3)cc(F)c2n1 [Compound 184] | > 10000 | > 10000 | > 10000 | 1000 to 10000 | > 10000 | 1000 to 10000 |  | > 10000 |  |  |  | 
5 | Cc1cn2cc(-c3cc4ncn([C@H]5CCNC[C@@H]5O)c(=O)c4s3)cc(F)c2n1 [Compound 280] | 100 to 1000 | 100 to 1000 | 100 to 1000 | 100 to 1000 | 100 to 1000 | 100 to 1000 | 100 to 1000 | 100 to 1000 |  |  |  | 
6 | Cc1c(O)c(-c2nc3c(=O)n(C4CCNCC4)cnc3s2)cc2cn(C)nc12 [Compound 283] |  |  |  |  |  |  |  |  | 1000 to 10000 | 1000 to 10000 | 1000 to 10000 | 1000 to 10000
7 | O=c1c2sc(-c3ccc(-c4cn[nH]c4)cc3O)nc2ncn1C1CCNCC1 [Compound 334] |  |  |  |  |  |  |  |  | > 10000 | > 10000 | > 10000 | > 10000
8 | COc1c(-c2nc3ncn(C4CCNCC4)c(=O)c3s2)cc2cn(C)nc2c1C [Compound 335, 2-(6-methoxy-2,7-dimethylindazol-5-yl)-6-(piperidin-4-yl)-[1,3]thiazolo[4,5-d]pyrimidin-7-one] |  |  |  |  |  |  |  |  | > 10000 | > 10000 | > 10000 | > 10000
9 | Cc1cc(-c2cc3ccn(C4CCN(C)CC4)c(=O)c3s2)cc2cn(C)nc12 [Compound 807] | 100 to 1000 | 100 to 1000 | 100 to 1000 | < 100 | 100 to 1000 | 100 to 1000 | 1000 to 10000 | 100 to 1000 | 1000 to 10000 |  |  | 
